Laboratory results from ChEMBL document CHEMBL3046470, “Design, synthesis, anti-inflammatory, analgesic screening, and molecular docking of some novel 2-pyridyl (3H)-quinazolin-4-one derivatives” (2013).
Active and inactive are the calls of the source. The calls are words filed in the database; no cut-off is given here.

How the values were obtained:
[1] = tested on: Rattus norvegicus; experiment: Anti-inflammatory activity against Rattus norvegicus Albino Sprague-Dawley (rat) assessed as inhibition of carrageenan-induced paw edema at 50 mg/kg, ip administered 30 min prior to carrageenan injection measured after 4 hr by plethysmometer analysis; format: functional, organism-based; set-up: dose 50 mg/kg
[2] = tested on: Rattus norvegicus; experiment: Anti-inflammatory activity against Rattus norvegicus Albino Sprague-Dawley (rat) assessed as inhibition of carrageenan-induced paw edema at 50 mg/kg, ip administered 30 min prior to carrageenan injection measured after 2 hr by plethysmometer analysis; format: functional; conditions: for inhibition in vivo at 50 mg/kg: route intraperitoneal
[3] = tested on: Rattus norvegicus; experiment: Anti-inflammatory activity against Rattus norvegicus albino Sprague-Dawley (rat) assessed as inhibition of carrageenan-induced paw edema at 50 mg/kg, ip administered 30 min prior to carrageenan injection measured after 3 hr by plethysmometer analysis; format: functional, organism-based; set-up: dose 50 mg/kg
[4] = tested on: Rattus norvegicus; experiment: Anti-inflammatory activity against Rattus norvegicus Albino Sprague-Dawley (rat) assessed as inhibition of carrageenan-induced paw edema at 50 mg/kg, ip administered 30 min prior to carrageenan injection measured after 1 hr by plethysmometer analysis; format: functional; conditions: for inhibition in vivo at 50 mg/kg: route intraperitoneal
[5] = tested on: Mus musculus; experiment: Analgesic activity in Mus musculus Swiss (mouse) assessed as inhibition of acetic acid-induced writhing administered 1 hr prior to acetic acid injection measured after 5 min for 30 min; format: functional; conditions: read-out: PD50
[6] = tested on: Mus musculus; experiment: Analgesic activity in Mus musculus Swiss (mouse) assessed as inhibition of acetic acid-induced writhing at 50 mg/kg, sc administered 1 hr prior to acetic acid injection measured after 5 min for 30 min; format: functional; conditions: route subcutaneous
[7] = tested on: Rattus norvegicus; experiment: Anti-inflammatory activity against Rattus norvegicus Albino Sprague-Dawley (rat) assessed as inhibition of carrageenan-induced paw edema administered 30 min prior to carrageenan injection measured after 4 hr by plethysmometer analysis; format: functional
[8] = tested on: Rattus norvegicus; experiment: Anti-inflammatory activity against Rattus norvegicus Albino Sprague-Dawley (rat) assessed as inhibition of carrageenan-induced paw edema at 18 mg/kg, ip administered 30 min prior to carrageenan injection measured after 1 hr by plethysmometer analysis; format: functional; conditions: route intraperitoneal

Row | Compound | inhibition [1] | inhibition [2] | inhibition [3] | inhibition in vivo at 50 mg/kg [4] [%] | inhibition in vivo at 50 mg/kg [2] [%] | inhibition [4] | ED50 [5] [mg/kg] | inhibition in vivo at 50 mg/kg [6] [%] | ED50 [7] [mg/kg] | inhibition in vivo at 18 mg/kg [8] [%]
1 | COc1ccc(C2CC(c3ccc(-n4c(-c5ccncc5)nc5ccc(Br)cc5c4=O)cc3)=NN2C(C)=O)cc1 (centres undefined) | Active | Active | Active | 64.5 | – | – | – | – | – | –
2 | O=c1c2cc(Br)ccc2nc(-c2ccncc2)n1-c1ccc(-c2csc(O)n2)cc1 | Active | – | Active | – | 67.3 | Active | 15 | 75.7 | – | –
3 | O=C(/C=C/c1ccc(Cl)cc1)c1ccc(-n2c(-c3ccncc3)nc3ccc(Br)cc3c2=O)cc1 | Active | Active | Active | 73.8 | – | – | – | – | – | –
4 | Nc1nc(-c2ccc(-n3c(-c4ccncc4)nc4ccc(Br)cc4c3=O)cc2)cs1 | Active | – | Active | – | 62.8 | Active | – | – | – | –
5 | O=C1N=C(c2ccc(-n3c(-c4ccncc4)nc4ccc(Br)cc4c3=O)cc2)CC(c2ccc(Cl)cc2)N1 (centres undefined) | Active | Active | Active | 62.3 | – | – | – | 75.4 | – | –
6 | O=C(/C=C/c1ccc([N+](=O)[O-])cc1)c1ccc(-n2c(-c3ccncc3)nc3ccc(Br)cc3c2=O)cc1 | Active | – | Active | – | 70.5 | Active | – | – | 22.3 | –
7 | COc1ccc2c(c1)c(CC(=O)O)c(C)n2C(=O)c1ccc(Cl)cc1 [INDOMETHACIN] | – | – | – | – | – | – | – | – | – | 62.9
